Results reported in patent US20080269142A1, “ENDOGENOUS THIADIAZABICYCLO GLUTATHIONE-ADDUCT” (priority 2006, published 2008).

Tested on: EA.hy 926 endothelial cells
Assay: Apoptosis (morphological changes) in treated EA.hy 926 endothelial cells
Format: cell-based
Method: EA.hy 926 endothelial cells were incubated in DMEM (10 mL) containing 10% FBS, 100 unit/mL of penicillin, and 100 μg/mL of streptomycin at 37° C. in an atmosphere of 5% CO2. After the cells reached 70-80% confluence (approximately 2×10^6 cells), the complete DMEM was removed and replaced with FBS-free DMEM for treatment with dimethyl-TOG.
As the result, there was little accumulation of TOG in the cells. […] Therefore, high doses of dimethyl-TOG (100 μM and 200 μM) were chosen to detect an apoptosis-inducing effect. When the cells were treated with dimethyl-TOG, typical morphological changes of apoptosis, such as detachment from the substrate, shrinkage, and membrane blebbing were observed as early as 1 h after treatment.
GGT mediates the first step of hydrolysis of extracellular GSH. The hydrolyzed amino acids will be transported back to the cells for GSH biosynthesis (4). Without GGT activity, there would be accumulation of GSH in the extracellular medium and depletion of intracellular GSH.

Structure (SMILES): CCCCCC(=O)/C=C/C=O [ONE, 4-oxo-2(E)-nonenal]
- apoptosis after 8 h of incubation (10 μM ONE, 8 h): most of the cells treated with 10 μM ONE went to complete apoptosis
- apoptosis-inducing effect (ONE 1 μM alone): no apoptosis-inducing effect
